The target of experiment [1] is MAGI1_2 PDZ (Homo sapiens, UniProt Q96QZ7). Kind of experiment: Competitive fluorescence polarization (FP) assay. In kind it is binding. The following applies: read-out: pKd FP (converted). On the procedure:
In direct fluorescence polarization assay, the fluorophore label can interfere with affinity determination and can cause large experimental bias. For this reason, affinities were determined with competitive FP measurements where the bound fluorescent peptide is chased out by increasing concentration of unlabeled competitor. In the fitting procedure, affinities of both peptides are considered. Each PDZ-domain was first tested with labeled peptides in direct experiments and then optimal labeled peptides were used in competitive experiments.
Double affinity-purified His6-MBP-PDZ were used for affinity measurements by FP. Fluorescence polarization was measured with a PHERAstar microplate reader by using 485 ± 20 nm and 528 ± 20 nm band-pass filters for excitation and emission, respectively. […] In total, the polarization of the probe was measured at eight different protein concentrations (whereas one contained no protein and corresponded to the free peptide). […] The dissociation constants of the direct and competitive FP experiments were obtained by fitting the measured direct data with a quadratic binding equation first and by fitting the measured competitive data with a competitive equation, using several obtained parameters from the first fit[71]. In part, competitive fluorescence polarization data were taken from refs. [22],[21]. […]
For orientation: Polarisation of emitted light reports the rotation of a fluorescent probe.

Experiment [2] concerns the target SYNJ2BP PDZ (Homo sapiens, UniProt P57105). Kind of experiment: Holdup assay. In kind it is binding.

SMILES strings stand for the structures.

Chain of SYNJ2BP PDZ (P57105 13-100 limits assumed): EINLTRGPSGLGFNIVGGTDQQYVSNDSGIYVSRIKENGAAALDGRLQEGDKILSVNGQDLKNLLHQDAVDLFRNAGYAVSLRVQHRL
Chain of MAGI1_2 PDZ (Q96QZ7 472-554 limits assumed): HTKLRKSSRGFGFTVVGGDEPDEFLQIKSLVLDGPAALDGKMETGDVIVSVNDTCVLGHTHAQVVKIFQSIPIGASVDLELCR

`CC(C)C[C@H](NC(=O)[C@H](CCC(N)=O)NC(=O)[C@@H](NC(=O)[C@H](CCC(=O)O)NC(=O)[C@H](CCCNC(=N)N)NC(=O)[C@H](CCCNC(=N)N)NC(=O)[C@@H](NC(=O)[C@H](CCCNC(=N)N)NC(=O)[C@H](CO)NC(=O)[C@H](CO)NC(=O)CCC(=O)NCCCOCCOCCOCCCNC(=O)CCCC[C@@H]1SC[C@@H]2NC(=O)N[C@@H]21)[C@@H](C)O)[C@@H](C)OP(=O)(O)O)C(=O)O` [HPV16-E6_-2P]: the Kd in experiment [1] is 2520 µM. With `CC(C)C[C@H](NC(=O)[C@H](CCC(N)=O)NC(=O)[C@@H](NC(=O)[C@H](CCC(=O)O)NC(=O)[C@H](CCCNC(=N)N)NC(=O)[C@H](CCCNC(=N)N)NC(=O)[C@@H](NC(=O)[C@H](CCCNC(=N)N)NC(=O)[C@H](CO)NC(=O)[C@@H](N)CO)[C@@H](C)O)[C@@H](C)O)C(=O)O` [HPV16E6], the Kd in experiment [2] is 6.56 µM.

The values are drawn from publication PMC9482650, “Quantitative fragmentomics allow affinity mapping of interactomes” (Nature Communications, 2022).
